Test [1] concerns the target Serine/threonine-protein kinase PLK1 (Xenopus laevis, UniProt P70032). The experiment in a line: Plx1 Kinase Inhibition Assay. As to conditions: pH 7.5; 22 °C. As for the experimental part:
Purified Plx1 was first incubated with different concentrations of LFM-A13. The substrate, GST-Cdc25 peptide (254-316) and [gamma-32P]ATP were added and the kinase reaction allowed to proceed for 15 min at room temperature. After incubation, incorporation of radioactivity to the substrate was further quantified.

Test [2] addresses T1, Serine/threonine-protein kinase Chk1 (Homo sapiens, UniProt O14757).
T1 sequence (O14757 whole entry): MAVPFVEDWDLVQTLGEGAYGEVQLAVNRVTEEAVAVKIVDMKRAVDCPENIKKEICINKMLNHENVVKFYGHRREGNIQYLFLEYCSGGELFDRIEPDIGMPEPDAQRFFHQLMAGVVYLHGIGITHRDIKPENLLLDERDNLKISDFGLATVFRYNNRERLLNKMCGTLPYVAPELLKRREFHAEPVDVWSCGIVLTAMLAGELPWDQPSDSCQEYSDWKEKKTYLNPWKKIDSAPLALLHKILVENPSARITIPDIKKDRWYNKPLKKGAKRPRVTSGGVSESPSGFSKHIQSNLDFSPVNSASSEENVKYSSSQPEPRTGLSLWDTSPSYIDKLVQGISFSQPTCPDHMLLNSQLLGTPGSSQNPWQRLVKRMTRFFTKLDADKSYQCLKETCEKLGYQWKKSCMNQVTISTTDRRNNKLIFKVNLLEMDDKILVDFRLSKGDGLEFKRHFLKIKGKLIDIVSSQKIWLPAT
Briefly: Kinase Selectivity Assay. An excerpt: (§1) The specificity of LFM-A13 was further examined against a broad panel of serine-threonine kinases and tyrosine kinases using the KinaseProfiler Assay protocols from Upstate (Charlottesville, Virginia).

The target in test [3] is Mast/stem cell growth factor receptor Kit (Homo sapiens, UniProt P10721). Briefly: Kinase Selectivity Assay.
Chain of Mast/stem cell growth factor receptor Kit (P10721 whole entry): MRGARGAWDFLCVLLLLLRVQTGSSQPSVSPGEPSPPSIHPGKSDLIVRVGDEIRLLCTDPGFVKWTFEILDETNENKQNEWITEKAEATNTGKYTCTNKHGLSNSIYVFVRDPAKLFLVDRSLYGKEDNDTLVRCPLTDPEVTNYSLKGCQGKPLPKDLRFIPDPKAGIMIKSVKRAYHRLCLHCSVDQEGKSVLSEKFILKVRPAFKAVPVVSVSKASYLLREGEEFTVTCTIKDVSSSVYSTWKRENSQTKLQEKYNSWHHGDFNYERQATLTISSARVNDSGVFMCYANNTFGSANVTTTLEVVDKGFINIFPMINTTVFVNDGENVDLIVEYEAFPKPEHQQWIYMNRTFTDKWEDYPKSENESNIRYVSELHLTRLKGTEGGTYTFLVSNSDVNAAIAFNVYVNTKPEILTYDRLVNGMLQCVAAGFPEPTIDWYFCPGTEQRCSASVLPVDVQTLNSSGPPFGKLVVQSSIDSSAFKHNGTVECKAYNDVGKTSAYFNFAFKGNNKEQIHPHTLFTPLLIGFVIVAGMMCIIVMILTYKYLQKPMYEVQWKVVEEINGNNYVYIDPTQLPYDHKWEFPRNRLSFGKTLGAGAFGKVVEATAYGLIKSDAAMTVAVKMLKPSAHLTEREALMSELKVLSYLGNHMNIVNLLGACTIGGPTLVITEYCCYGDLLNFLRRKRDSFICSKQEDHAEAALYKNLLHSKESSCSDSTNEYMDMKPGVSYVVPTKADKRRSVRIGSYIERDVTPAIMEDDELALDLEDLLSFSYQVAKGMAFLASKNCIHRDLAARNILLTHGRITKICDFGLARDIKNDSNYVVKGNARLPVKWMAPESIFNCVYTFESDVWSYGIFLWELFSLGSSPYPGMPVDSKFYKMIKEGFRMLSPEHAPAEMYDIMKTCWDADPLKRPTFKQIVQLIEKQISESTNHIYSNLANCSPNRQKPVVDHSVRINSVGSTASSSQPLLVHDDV
Excerpt: as §1

For test [4], the target named is Hepatocyte growth factor receptor (Homo sapiens, UniProt P08581). Briefly: Kinase Selectivity Assay.
Chain of Hepatocyte growth factor receptor (P08581 whole entry): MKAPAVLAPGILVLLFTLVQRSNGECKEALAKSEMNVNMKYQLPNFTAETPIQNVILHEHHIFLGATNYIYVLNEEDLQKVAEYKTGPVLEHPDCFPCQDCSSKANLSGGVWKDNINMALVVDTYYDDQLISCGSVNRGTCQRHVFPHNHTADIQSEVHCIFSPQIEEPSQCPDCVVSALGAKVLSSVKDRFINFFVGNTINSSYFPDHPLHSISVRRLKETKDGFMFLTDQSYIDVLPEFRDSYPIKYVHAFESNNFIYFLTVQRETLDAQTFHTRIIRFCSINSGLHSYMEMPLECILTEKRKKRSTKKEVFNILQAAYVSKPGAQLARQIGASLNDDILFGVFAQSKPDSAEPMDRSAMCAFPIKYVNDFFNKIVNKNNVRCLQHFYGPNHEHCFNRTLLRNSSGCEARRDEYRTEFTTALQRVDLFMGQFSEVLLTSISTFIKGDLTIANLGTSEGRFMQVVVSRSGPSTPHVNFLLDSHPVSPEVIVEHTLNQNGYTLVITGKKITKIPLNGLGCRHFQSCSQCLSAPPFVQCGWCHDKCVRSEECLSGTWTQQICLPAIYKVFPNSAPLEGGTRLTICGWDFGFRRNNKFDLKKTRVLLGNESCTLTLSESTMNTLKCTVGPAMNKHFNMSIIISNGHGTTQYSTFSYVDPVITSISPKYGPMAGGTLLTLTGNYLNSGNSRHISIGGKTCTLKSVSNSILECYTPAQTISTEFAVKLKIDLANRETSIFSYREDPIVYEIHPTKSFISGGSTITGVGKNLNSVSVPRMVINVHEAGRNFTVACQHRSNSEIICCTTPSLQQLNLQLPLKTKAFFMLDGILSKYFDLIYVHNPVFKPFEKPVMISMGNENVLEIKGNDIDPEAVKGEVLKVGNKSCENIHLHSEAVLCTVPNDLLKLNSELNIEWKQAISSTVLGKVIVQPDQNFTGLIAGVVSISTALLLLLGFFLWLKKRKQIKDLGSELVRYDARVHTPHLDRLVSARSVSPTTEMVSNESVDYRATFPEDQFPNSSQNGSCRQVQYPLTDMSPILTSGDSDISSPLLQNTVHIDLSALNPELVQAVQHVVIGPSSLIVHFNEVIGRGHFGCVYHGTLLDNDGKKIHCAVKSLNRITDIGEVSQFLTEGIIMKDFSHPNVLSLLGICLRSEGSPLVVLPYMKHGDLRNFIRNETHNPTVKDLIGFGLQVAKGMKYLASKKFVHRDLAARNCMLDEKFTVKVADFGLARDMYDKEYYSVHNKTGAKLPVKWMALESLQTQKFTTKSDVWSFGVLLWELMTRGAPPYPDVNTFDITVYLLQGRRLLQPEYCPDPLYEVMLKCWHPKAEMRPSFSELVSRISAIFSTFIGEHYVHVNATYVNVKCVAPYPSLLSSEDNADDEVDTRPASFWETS
Excerpt: as §1

Test [5] addresses Protein-tyrosine kinase 6 (Homo sapiens, UniProt Q13882). The experiment in a line: Kinase Selectivity Assay.
Excerpt: as §1

The target in test [6] is Cyclin-A2/Cyclin-dependent kinase 2 (Homo sapiens, UniProt P24941). The experiment in a line: Kinase Selectivity Assay.
Excerpt: as §1

Test [7] addresses T2, Cytoplasmic tyrosine-protein kinase BMX (Homo sapiens, UniProt P51813).
T2 sequence (P51813 whole entry): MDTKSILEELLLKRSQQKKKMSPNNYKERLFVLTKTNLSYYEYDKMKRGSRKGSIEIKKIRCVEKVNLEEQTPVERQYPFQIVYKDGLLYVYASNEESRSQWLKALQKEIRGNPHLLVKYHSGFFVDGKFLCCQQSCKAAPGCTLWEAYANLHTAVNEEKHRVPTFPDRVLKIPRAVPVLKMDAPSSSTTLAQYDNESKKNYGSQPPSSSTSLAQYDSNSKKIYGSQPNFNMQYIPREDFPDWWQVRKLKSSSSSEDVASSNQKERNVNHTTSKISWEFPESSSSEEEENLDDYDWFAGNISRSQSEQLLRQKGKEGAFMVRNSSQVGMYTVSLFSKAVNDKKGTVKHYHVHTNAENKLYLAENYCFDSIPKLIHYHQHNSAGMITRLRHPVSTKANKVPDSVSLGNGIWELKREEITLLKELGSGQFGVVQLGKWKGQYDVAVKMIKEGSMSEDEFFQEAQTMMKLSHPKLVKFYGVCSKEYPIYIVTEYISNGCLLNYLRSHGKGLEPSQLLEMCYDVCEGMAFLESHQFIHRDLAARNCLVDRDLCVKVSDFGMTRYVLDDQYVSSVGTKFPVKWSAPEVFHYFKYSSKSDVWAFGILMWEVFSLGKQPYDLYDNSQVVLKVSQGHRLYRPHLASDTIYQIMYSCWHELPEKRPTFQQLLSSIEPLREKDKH
Briefly: Kinase Selectivity Assay.
Excerpt: as §1

Test [8] concerns the target Tyrosine-protein kinase Fyn (Homo sapiens, UniProt P06241). Briefly: Kinase Selectivity Assay.
Excerpt: as §1

Test [9] has as its target Cyclin-dependent kinase/G2/mitotic-specific cyclin- 1 (Homo sapiens, UniProt P06493). The experiment in a line: Kinase Selectivity Assay.
Excerpt: as §1

Test [10] has as its target Serine/threonine-protein kinase PLK3 (Homo sapiens, UniProt Q9H4B4). The experiment in a line: PLK3 Kinase Inhibition Assay. As to conditions: pH 7; 22 °C. The protocol: The mode of human PLK3 inhibition by LFM-A13 was examined in titration experiments using increasing concentrations of [gamma-32P]ATP and purified N-terminal His6-tagged recombinant human PLK3. The Ki of PLK3 by LFM-A13 was calculated from the reciprocal plots of the intensity of phosphorylation of the substrate versus the concentration of the inhibitor. From this Dixon plot, the Ki represents the dissociation constants of the EI complex, which is determined by the point of linear intersection.

Where only a bound is given, the exact number is not on record here.

Chain of Serine/threonine-protein kinase PLK3 (Q9H4B4 whole entry): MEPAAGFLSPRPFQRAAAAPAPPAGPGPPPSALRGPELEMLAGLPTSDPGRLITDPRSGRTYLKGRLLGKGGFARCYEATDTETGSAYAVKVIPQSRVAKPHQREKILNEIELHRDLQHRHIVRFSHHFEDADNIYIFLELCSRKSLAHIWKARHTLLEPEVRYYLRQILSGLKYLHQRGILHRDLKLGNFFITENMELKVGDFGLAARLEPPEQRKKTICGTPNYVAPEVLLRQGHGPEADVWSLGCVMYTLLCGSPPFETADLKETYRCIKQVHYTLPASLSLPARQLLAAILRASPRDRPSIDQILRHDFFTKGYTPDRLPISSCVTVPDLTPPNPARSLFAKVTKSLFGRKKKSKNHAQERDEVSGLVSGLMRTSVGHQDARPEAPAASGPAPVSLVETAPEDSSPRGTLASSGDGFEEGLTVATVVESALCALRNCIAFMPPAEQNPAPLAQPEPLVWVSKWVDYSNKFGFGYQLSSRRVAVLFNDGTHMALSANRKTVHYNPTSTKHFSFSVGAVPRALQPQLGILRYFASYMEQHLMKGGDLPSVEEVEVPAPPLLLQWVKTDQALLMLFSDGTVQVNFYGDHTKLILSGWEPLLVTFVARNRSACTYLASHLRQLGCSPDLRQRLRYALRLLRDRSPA
Chain of Cyclin-dependent kinase/G2/mitotic-specific cyclin- 1 (P06493 whole entry): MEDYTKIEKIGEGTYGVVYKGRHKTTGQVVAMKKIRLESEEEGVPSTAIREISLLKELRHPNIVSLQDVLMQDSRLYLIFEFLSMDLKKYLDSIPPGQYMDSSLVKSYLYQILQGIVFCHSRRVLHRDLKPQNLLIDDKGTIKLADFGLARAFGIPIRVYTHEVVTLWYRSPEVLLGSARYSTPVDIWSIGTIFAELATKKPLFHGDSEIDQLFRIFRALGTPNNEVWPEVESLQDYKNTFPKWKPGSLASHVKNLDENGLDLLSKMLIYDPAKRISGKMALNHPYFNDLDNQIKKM
Chain of Cyclin-dependent kinase/G2/mitotic-specific cyclin- 1 (P14635 whole entry, further chain): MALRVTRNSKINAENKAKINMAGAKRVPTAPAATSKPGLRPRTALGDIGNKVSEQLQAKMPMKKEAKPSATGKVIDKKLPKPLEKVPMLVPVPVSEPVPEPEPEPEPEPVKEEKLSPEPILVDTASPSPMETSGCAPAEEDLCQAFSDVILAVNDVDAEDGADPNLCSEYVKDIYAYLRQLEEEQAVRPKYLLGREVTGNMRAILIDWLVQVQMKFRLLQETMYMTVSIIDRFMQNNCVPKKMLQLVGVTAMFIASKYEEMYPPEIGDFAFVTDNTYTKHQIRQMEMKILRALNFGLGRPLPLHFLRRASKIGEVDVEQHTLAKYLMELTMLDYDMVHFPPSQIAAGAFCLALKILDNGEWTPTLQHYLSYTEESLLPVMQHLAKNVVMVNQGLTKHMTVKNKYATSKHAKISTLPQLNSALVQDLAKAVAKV
Chain of Serine/threonine-protein kinase PLK1 (P70032 whole entry): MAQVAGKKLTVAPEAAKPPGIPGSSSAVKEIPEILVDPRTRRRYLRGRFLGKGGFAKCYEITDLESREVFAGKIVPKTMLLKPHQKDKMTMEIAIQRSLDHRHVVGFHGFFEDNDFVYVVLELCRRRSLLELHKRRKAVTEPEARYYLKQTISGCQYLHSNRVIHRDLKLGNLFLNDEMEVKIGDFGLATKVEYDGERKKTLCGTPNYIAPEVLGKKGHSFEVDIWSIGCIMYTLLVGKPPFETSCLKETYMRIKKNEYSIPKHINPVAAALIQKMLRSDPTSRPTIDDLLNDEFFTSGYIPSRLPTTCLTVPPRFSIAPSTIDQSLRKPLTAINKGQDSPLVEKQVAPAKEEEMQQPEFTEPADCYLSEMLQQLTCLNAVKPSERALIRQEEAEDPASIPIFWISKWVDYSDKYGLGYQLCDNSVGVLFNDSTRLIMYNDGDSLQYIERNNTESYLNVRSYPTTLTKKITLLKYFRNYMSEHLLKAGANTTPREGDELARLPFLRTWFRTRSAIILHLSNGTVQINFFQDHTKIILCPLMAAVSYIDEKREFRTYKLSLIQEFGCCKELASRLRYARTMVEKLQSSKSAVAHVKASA
Chain of Tyrosine-protein kinase Fyn (P06241 whole entry): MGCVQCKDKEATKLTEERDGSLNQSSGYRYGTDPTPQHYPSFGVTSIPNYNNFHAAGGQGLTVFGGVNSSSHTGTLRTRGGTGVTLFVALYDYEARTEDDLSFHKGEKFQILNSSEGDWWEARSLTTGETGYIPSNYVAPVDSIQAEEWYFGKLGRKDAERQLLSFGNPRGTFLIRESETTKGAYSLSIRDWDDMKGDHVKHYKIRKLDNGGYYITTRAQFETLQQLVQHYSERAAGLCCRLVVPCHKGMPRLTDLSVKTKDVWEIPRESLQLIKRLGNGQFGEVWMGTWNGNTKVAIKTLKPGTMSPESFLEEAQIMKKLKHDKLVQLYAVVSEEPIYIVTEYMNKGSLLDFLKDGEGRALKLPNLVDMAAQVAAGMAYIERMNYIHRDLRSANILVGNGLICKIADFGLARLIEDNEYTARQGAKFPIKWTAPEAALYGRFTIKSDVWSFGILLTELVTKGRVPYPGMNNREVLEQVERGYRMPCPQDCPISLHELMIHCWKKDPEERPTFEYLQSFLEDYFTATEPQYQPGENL

As a reminder, the IC50 is the point on the concentration scale where inhibition reaches its midpoint. Read a low IC50 as greater potency. As usually defined, the Ki is the dissociation constant of the complex between target and ligand, obtained from inhibition or displacement. Low values mean higher affinity, high ones lower affinity. Consider `CC(=O)C(C#N)C(=O)Nc1cc(Br)ccc1Br` (stereo unspecified), for which the IC50 in test [1] was 10 µM; in test [2], more than 500 µM; in test [3] it was more than 500 µM; in [4] it was 215 µM; in [5] it was 267 µM; in test [6], more than 500 µM. Also, the half-maximal inhibitory concentration (IC50) in test [7] is 281 µM; in test [8], 240 µM; in test [9], more than 500 µM; in [10], 61 µM. The Ki in test [10] turned out to be 7.2 µM.

(Values after BindingDB's records for doi:10.1016/j.bmc.2006.10.050 (Paradigm Pharmaceuticals, 2007).)
